Reference: patent US7888464B2, “Hepatitis C virus inhibitors” (Bristol-Myers Squibb Company, priority 2006, dated 2011)

Tests used:
[1] = target: T1, HCV NS3/4A protease complex, BMS strain (genotype 1a) (UniProt P27958, species not given/STRAIN_BMS); assay: FRET peptide assay to monitor HCV NS3/4A proteolytic activity (BMS strain); format: biochemical; details: NS3/4A BMS strain; activity range symbols of Table 2; read-out: HCV Protease (IC50)
T1 construct: "DNA encoding the recombinant HCV NS3/4A protease complex (amino acids 1027 to 1711) for these strains" (said of H77 and J4L6S, not expressly of BMS); given for the H77/J4L6S constructs only
T1 sequence (P27958 1027-1657, stated change not applied, one chain of several): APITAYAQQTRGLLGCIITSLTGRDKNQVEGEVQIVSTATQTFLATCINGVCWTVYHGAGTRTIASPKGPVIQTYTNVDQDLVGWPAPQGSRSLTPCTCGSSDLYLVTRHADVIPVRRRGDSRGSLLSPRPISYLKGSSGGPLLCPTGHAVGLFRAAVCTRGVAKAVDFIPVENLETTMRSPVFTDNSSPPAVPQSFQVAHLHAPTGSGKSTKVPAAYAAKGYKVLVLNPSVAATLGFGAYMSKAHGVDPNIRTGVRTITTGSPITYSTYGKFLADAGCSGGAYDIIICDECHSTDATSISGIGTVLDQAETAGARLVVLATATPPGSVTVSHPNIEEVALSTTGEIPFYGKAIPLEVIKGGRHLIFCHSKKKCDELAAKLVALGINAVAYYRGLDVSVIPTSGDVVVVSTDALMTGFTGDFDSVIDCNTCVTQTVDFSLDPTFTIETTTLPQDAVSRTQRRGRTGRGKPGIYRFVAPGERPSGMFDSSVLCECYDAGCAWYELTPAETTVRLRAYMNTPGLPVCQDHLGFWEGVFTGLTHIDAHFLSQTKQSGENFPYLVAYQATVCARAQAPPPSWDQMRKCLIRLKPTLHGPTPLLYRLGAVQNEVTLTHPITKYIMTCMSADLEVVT
Text: HCV NS3 protease complexes, derived from the BMS strain, H77 strain or J4L6S strain, were generated, as described below. These purified recombinant proteins were generated for use in a homogeneous assay (see below) to provide an indication of how effective compounds of the present disclosure would be in inhibiting HCV NS3 proteolytic activity.
Serum from an HCV-infected patient was obtained from Dr. T. Wright, San Francisco Hospital. An engineered full-length cDNA (compliment deoxyribonucleic acid) template of the HCV genome (BMS strain) was constructed from DNA fragments obtained by reverse transcription-PCR(RT-PCR) of serum RNA (ribonucleic acid) and using primers selected on the basis of homology between other genotype la strains. From the determination of the entire genome sequence, a genotype la was assigned to the HCV isolate according to the classification of Simmonds et al. (See P Simmonds, K A Rose, S Graham, S W Chan, F McOmish, B C Dow, E A Follett, P L Yap and H Marsden, J. Clin. Microbiol., 31(6), 1493-1503 (1993)). […] The infectious clones, H77 (1a genotype) and J4L6S (1b genotype) were obtained from R. Purcell (NIH) and the sequences are published in Genbank (AAB67036, see Yanagi, M., Purcell, R. H., Emerson, S. U. and Bukh, J. Proc. Natl. Acad. Sci. U.S.A. 94(16), 8738-8743 (1997); AF054247, see Yanagi, M., St Claire, M., Shapiro, M., Emerson, S. U., Purcell, R. H. and Bukh, J, Virology 244 (1), 161-172. (1998)).
The H77 and J4L6S strains were used for production of recombinant NS3/4A protease complexes. DNA encoding the recombinant HCV NS3/4A protease complex (amino acids 1027 to 1711) for these strains were manipulated as described by P. Gallinari et al. (see Gallinari P, Paolini C, Brennan D, Nardi C, Steinkuhler C, De Francesco R. Biochemistry. 38(17):5620-32, (1999)). Briefly, a three-lysine solubilizing tail was added at the 3′-end of the NS4A coding region. The cysteine in the P1 position of the NS4A-NS4B cleavage site (amino acid 1711) was changed to a glycine to avoid the proteolytic cleavage of the lysine tag. Furthermore, a cysteine to serine mutation was introduced by PCR at amino acid position 1454 to prevent the autolytic cleavage in the NS3 helicase domain. The variant DNA fragment was cloned in the pET21b bacterial expression vector (Novagen) and the NS3/4A complex was expressed in Escherichia. coli strain BL21 (DE3) (Invitrogen) following the protocol described by P. Gallinari et al. (see Gallinari P, Brennan D, Nardi C, Brunetti M, Tomei L, Steinkuhler C, De Francesco R., J. Virol. 72(8):6758-69 (1998)) with modifications. Briefly, the NS3/4A protease complex expression was induced with 0.5 millimolar (mM) Isopropyl β-D-1-thiogalactopyranoside (IPTG) for 22 hours (h) at 20° C. A typical fermentation (1 Liter (L)) yielded approximately 10 grams (g) of wet cell paste. The cells were resuspended in lysis buffer (10 mL/g) consisting of 25 mM N-(2-Hydroxyethyl)piperazine-N′-(2-Ethane Sulfonic acid) (HEPES), pH 7.5, 20% glycerol, 500 mM Sodium Chloride (NaCl), 0.5% Triton X-100, 1 microgram/milliliter (“μg/mL”) lysozyme, 5 mM Magnesium Chloride (MgCl2), 1 μg/ml DnaseI, 5 mM β-Mercaptoethanol (βME), Protease inhibitor-Ethylenediamine Tetraacetic acid (EDTA) free (Roche), homogenized and incubated for 20 minutes (min) at 4° C. The homogenate was sonicated and clarified by ultra-centrifugation at 235000 g for 1 hour (h) at 4° C. Imidazole was added to the supernatant to a final concentration of 15 mM and the pH adjusted to 8.0. The crude protein extract was loaded on a Nickel-Nitrilotriacetic acid (Ni-NTA) column pre-equilibrated with buffer B (25 mM HEPES, pH 8.0, 20% glycerol, 500 mM NaCl, 0.5% Triton X-100, 15 mM imidazole, 5 mM βME). The sample was loaded at a flow rate of 1 mL/min. The column was washed with 15 column volumes of buffer C (same as buffer B except with 0.2% Triton X-100). The protein was eluted with 5 column volumes of buffer D (same as buffer C except with 200 mM Imidazole). […]

[2] = tested on: HCV replicon (strain 1b) in HUH-7 cells; assay: HCV replicon FRET assay; format: cell-based; details: Hepatitis C virus, Huh-7, read-out: HCV Pro Replicon (EC50)
Text: An HCV replicon whole cell system was established as described by Lohmann V, Korner F, Koch J, Herian U, Theilmann L, Bartenschlager R., Science 285(5424): 110-3 (1999). This system enabled us to evaluate the effects of our HCV Protease compounds on HCV RNA replication. Briefly, using the HCV strain 1b sequence described in the Lohmann paper (Assession number: AJ238799), an HCV cDNA was synthesized by Operon Technologies, Inc. (Alameda, Calif.), and the full-length replicon was then assembled in plasmid pGem9zf(+) (Promega, Madison, Wis.) using standard molecular biology techniques. The replicon consists of (i) the HCV 5′ UTR fused to the first 12 amino acids of the capsid protein, (ii) the neomycin phosphotransferase gene (neo), (iii) the IRES from encephalomyocarditis virus (EMCV), and (iv) HCV NS3 to NS5B genes and the HCV 3′ UTR. Plasmid DNAs were linearized with ScaI and RNA transcripts were synthesized in vitro using the T7 MegaScript transcription kit (Ambion, Austin, Tex.) according to manufacturer's directions. In vitro transcripts of the cDNA were transfected into the human hepatoma cell line, HUH-7. […] Resulting cell lines were characterized for positive and negative strand RNA production and protein production over time.
The HCV replicon FRET assay was developed to monitor the inhibitory effects of compounds described in the disclosure on HCV viral replication. HUH-7 cells, constitutively expressing the HCV replicon, were grown in Dulbecco's Modified Eagle Media (DMEM) (Gibco-BRL) containing 10% Fetal calf serum (FCS) (Sigma) and 1 mg/ml G418 (Gibco-BRL). Cells were seeded the night before (1.5×10^4 cells/well) in 96-well tissue-culture sterile plates. Compound and no compound controls were prepared in DMEM containing 4% FCS, 1:100 Penicillin/Streptomysin (Gibco-BRL), 1:100 L-glutamine and 5% DMSO in the dilution plate (0.5% DMSO final concentration in the assay). Compound/DMSO mixes were added to the cells and incubated for 4 days at 37° C. After 4 days, cells were first assessed for cytotoxicity using alamar Blue (Trek Diagnotstic Systems) for a CC50 reading. The toxicity of compound (CC50) was determined by adding 1/10th volume of alamar Blue to the media incubating the cells. After 4 h, the fluorescence signal from each well was read, with an excitation wavelength at 530 nm and an emission wavelength of 580 nm, using the Cytofluor Series 4000 (Perspective Biosystems). Plates were then rinsed thoroughly with Phosphate-Buffered Saline (PBS) (3 times 150 μl). The cells were lysed with 25 μl of a lysis assay reagent containing an HCV protease substrate (5× cell Luciferase cell culture lysis reagent (Promega #E153A) diluted to 1× with distilled water, NaCl added to 150 mM final, the FRET peptide substrate (as described for the enzyme assay above) diluted to 10 μM final from a 2 mM stock in 100% DMSO. The plate was then placed into the Cytofluor 4000 instrument which had been set to 340 nm excitation/490 nm emission, automatic mode for 21 cycles and the plate read in a kinetic mode. EC50 determinations were carried out as described for the IC50 determinations.

Row | SMILES | IC50 [1] [µM] | EC50 [2] [µM]
1 | C=C[C@@H]1C[C@]1(NC(=O)[C@@H]1C[C@@](OC)(c2ccc(-c3ccccc3)cc2)CN1C(=O)[C@H](CC(C)C)NC(=O)OC(C)(C)C)C(=O)NS(=O)(=O)C1CC1 [Cmpd 203, {(S)-1-[(2S,4R)-4-Biphenyl-4-yl-2-((S)-(1R,2S)-1-cyclopropanesulfonylaminocarbonyl-2-vinyl-cyclopropylcarbamoyl)-4-methoxy-pyrrolidine-1-carbonyl]-3-methyl-butyl}-carbamic acid tert-butyl ester] | 0.001 to 0.05 | 0.05 to 0.5
2 | C=C[C@@H]1C[C@]1(NC(=O)[C@@H]1C[C@@](OC)(c2ccc(-c3ccccc3)cc2)CN1C(=O)[C@@H](Nc1ccc(F)c(F)c1)C(C)(C)C)C(=O)NS(=O)(=O)C1CC1 [Cmpd 209, (2S,4R)-4-Biphenyl-4-yl-1-[(S)-2-(3,4-difluoro-phenylamino)-3,3-dimethyl-butyryl]-4-methoxy-pyrrolidine-2-carboxylic acid ((1R,2 S)-1-cyclopropanesulfonylaminocarbonyl-2-vinyl-cyclopropyl)-amide] | 0.001 to 0.05 | 0.001 to 0.05
3 | C=C[C@@H]1C[C@]1(NC(=O)[C@@H]1C[C@@](OC)(c2ccc(-c3ccccc3)cc2)CN1C(=O)[C@@H](NC(=O)NC12CC3CC(CC(C3)C1)C2)C(C)(C)C)C(=O)NS(=O)(=O)C1CC1 [Cmpd 205, (2S,4R)-1-[(S)-2-(3-Adamantan-1-yl-ureido)-3,3-dimethyl-butyryl]-4-biphenyl-4-yl-4-methoxy-pyrrolidine-2-carboxylic acid ((1R,2S)-1-cyclopropanesulfonylaminocarbonyl-2-vinyl-cyclopropyl)-amide] | 0.001 to 0.05 | 0.001 to 0.05
4 | C=C[C@@H]1C[C@]1(NC(=O)[C@@H]1C[C@@](OCc2ccccc2)(c2ccc(-c3ccccc3)cc2)CN1C(=O)[C@@H](NC(=O)OC(C)(C)C)C(C)(C)C)C(=O)NS(=O)(=O)C1CC1 [Cmpd 108] | 0.001 to 0.05 | 0.001 to 0.05
5 | C=C[C@@H]1C[C@]1(NC(=O)[C@@H]1C[C@@](OC)(c2ccc(-c3ccccc3)cc2)CN1C(=O)[C@@H](NC(=O)OC(C)(C)C)C(C)CC)C(=O)NS(=O)(=O)C1CC1 (stereo partly drawn) [Cmpd 202, {(S)-1-[(2S,4R)-4-Biphenyl-4-yl-2-((S)-(1R,2S)-1-cyclopropanesulfonylaminocarbonyl-2-vinyl-cyclopropylcarbamoyl)-4-methoxy-pyrrolidine-1-carbonyl]-2-methyl-butyl}-carbamic acid tert-butyl ester] | 0.001 to 0.05 | 0.05 to 0.5
6 | C=CCCCCC[C@H](NC(=O)OC(C)(C)C)C(=O)N1C[C@](OC)(c2ccc(-c3ccccc3)cc2)C[C@H]1C(=O)N[C@]1(C(=O)NS(=O)(=O)C2CC2)C[C@H]1C=C [Cmpd 107] | 0.05 to 0.5 | > 0.5
7 | C=C[C@@H]1C[C@]1(NC(=O)[C@@H]1C[C@@](OC)(c2ccc(-c3ccccc3)cc2)CN1C(=O)[C@@H](NC(=O)OC(C)(C)C)C(C)C)C(=O)NS(=O)(=O)C1CC1 [Cmpd 201, {(S)-1-[(2S,4R)-4-Biphenyl-4-yl-2-((S)-(1R,2S)-1-cyclopropanesulfonylaminocarbonyl-2-vinyl-cyclopropylcarbamoyl)-4-methoxy-pyrrolidine-1-carbonyl]-2-methyl-propyl}-carbamic acid tert-butyl ester] | 0.001 to 0.05 | 0.05 to 0.5
